Experimental data from patent publication EP3211076A1, “NOVEL ALPHA-GLUCOSIDASE” (Showa Sangyo Co., Ltd., priority 2014, dated 2016).

What was measured:
[1] = system: α-Glucosidase Derived from NBRC4239 Strain; assay: Effect of metal ion on the enzyme activity; type: biochemical, Aspergillus sojae
Method: The hydrolytic activity using maltose as the substrate was measured as shown below. A 20 mM maltose (50µL) dissolved in the 20mM MES buffer (pH 6.0) and an enzyme solution diluted by the buffer are mixed and incubated at 40°C for 30 min., then, 1 µL of 10% oxalic acid solution was added and heated at 100°C for 10 min. to stop the reaction. The amount of liberated glucose in the reaction solution was measured by Glucose CII Test Wako (produced by Wako Pure Chemical Industries, Ltd.). One unit of α-glucosidase activity was defined as the amount of enzyme that catalyzes hydrolysis of 1 µmol of maltose per minute. The effect of various metal ions on the present enzyme was studied. The enzyme activity was analyzed according to <Analysis Method of α-Glucosidase Activity>.

[2] = system: α-Glucosidase Derived from NBRC4239 Strain; assay: Substrate specificity of the enzyme; type: biochemical, Aspergillus sojae; details: 40°C, pH 6.0; for Relative Activity* (%): substrate 10mM, relative to decomposition rate of 10 mM maltose
Method: The substrate specificity of the present enzyme was evaluated at the conditions of 40°C and pH 6.0.

Compound	Specific Activity (%) ([1]; Concentration 5 mM added to reaction mixture, no addition = 100)	effect on the enzyme activity (in words) ([1]; addition of ions to the reaction mixture)	hydrolytic activity toward substrate (in words) [2]	Relative Activity* (%) [2]
O=C(O)CN(CCN(CC(=O)O)CC(=O)O)CC(=O)O [EDTA]	85%	inhibited the activity somewhat	–	–
OC[C@H]1O[C@H](O[C@H]2O[C@H](CO)[C@@H](O)[C@H](O)[C@H]2O)[C@H](O)[C@@H](O)[C@@H]1O [trehalose]	–	–	very slight	1%
OC[C@H]1O[C@H](O[C@H]2[C@H](O)[C@@H](O)[C@@H](O[C@H]3[C@H](O)[C@@H](O)C(O)O[C@@H]3CO)O[C@@H]2CO)[C@H](O)[C@@H](O)[C@@H]1O (stereo partly drawn) [maltotriose]	–	–	–	45%
OC[C@H]1O[C@H](O[C@H]2[C@H](O)[C@@H](O)[C@@H](O[C@H]3[C@H](O)[C@@H](O)[C@@H](O[C@H]4[C@H](O)[C@@H](O)[C@@H](O[C@H]5[C@H](O)[C@@H](O)[C@@H](O[C@H]6[C@H](O)[C@@H](O)C(O)O[C@@H]6CO)O[C@@H]5CO)O[C@@H]4CO)O[C@@H]3CO)O[C@@H]2CO)[C@H](O)[C@@H](O)[C@@H]1O (stereo partly drawn) [maltohexaose]	–	–	–	49%
OC[C@H]1O[C@H](O[C@H]2[C@H](O)[C@@H](O)C(O)O[C@@H]2CO)[C@H](O)[C@@H](O)[C@@H]1O (mixture of isomers) [maltose]	–	–	well hydrolytic activities	100%
OC[C@H]1O[C@H](O[C@H]2[C@H](O)[C@@H](O)[C@@H](O[C@H]3[C@H](O)[C@@H](O)[C@@H](O[C@H]4[C@H](O)[C@@H](O)C(O)O[C@@H]4CO)O[C@@H]3CO)O[C@@H]2CO)[C@H](O)[C@@H](O)[C@@H]1O (stereo partly drawn) [maltotetraose]	–	–	a little low	16%
OC[C@H]1O[C@H](OC[C@H]2O[C@H](O[C@H]3[C@H](O)[C@@H](O)C(O)O[C@@H]3CO)[C@H](O)[C@@H](O)[C@@H]2O)[C@H](O)[C@@H](O)[C@@H]1O (stereo partly drawn) [panose]	–	–	–	153%
OC[C@H]1O[C@@H]2O[C@H]3[C@H](O)[C@@H](O)[C@@H](O[C@H]4[C@H](O)[C@@H](O)[C@@H](O[C@H]5[C@H](O)[C@@H](O)[C@@H](O[C@H]6[C@H](O)[C@@H](O)[C@@H](O[C@H]7[C@H](O)[C@@H](O)[C@@H](O[C@H]8[C@H](O)[C@@H](O)[C@@H](O[C@H]9[C@H](O)[C@@H](O)[C@@H](O[C@H]1[C@H](O)[C@H]2O)O[C@@H]9CO)O[C@@H]8CO)O[C@@H]7CO)O[C@@H]6CO)O[C@@H]5CO)O[C@@H]4CO)O[C@@H]3CO [γ-cyclodextrine]	–	–	a little low	14%
OC[C@H]1O[C@H](O[C@H]2[C@H](O)[C@@H](CO)OC(O)[C@@H]2O)[C@H](O)[C@@H](O)[C@@H]1O (stereo partly drawn) [nigerose]	–	–	well hydrolytic activities	153%
OC[C@H]1O[C@H](OC[C@H]2O[C@H](OC[C@H]3O[C@H](OC[C@H]4OC(O)[C@H](O)[C@@H](O)[C@@H]4O)[C@H](O)[C@@H](O)[C@@H]3O)[C@H](O)[C@@H](O)[C@@H]2O)[C@H](O)[C@@H](O)[C@@H]1O (stereo partly drawn) [isomaltotetraose]	–	–	–	168%
OC[C@H]1O[C@H](O[C@H]2[C@H](O)[C@@H](O)[C@@H](O[C@H]3[C@H](O)[C@@H](O)[C@@H](O[C@H]4[C@H](O)[C@@H](O)[C@@H](O[C@H]5[C@H](O)[C@@H](O)C(O)O[C@@H]5CO)O[C@@H]4CO)O[C@@H]3CO)O[C@@H]2CO)[C@H](O)[C@@H](O)[C@@H]1O (stereo partly drawn) [maltopentaose]	–	–	–	41%
kojibiose	–	–	well hydrolytic activities	91%
OC[C@H]1O[C@@H]2O[C@H]3[C@H](O)[C@@H](O)[C@@H](O[C@H]4[C@H](O)[C@@H](O)[C@@H](O[C@H]5[C@H](O)[C@@H](O)[C@@H](O[C@H]6[C@H](O)[C@@H](O)[C@@H](O[C@H]7[C@H](O)[C@@H](O)[C@@H](O[C@H]8[C@H](O)[C@@H](O)[C@@H](O[C@H]1[C@H](O)[C@H]2O)O[C@@H]8CO)O[C@@H]7CO)O[C@@H]6CO)O[C@@H]5CO)O[C@@H]4CO)O[C@@H]3CO [β-cyclodextrine]	–	–	well hydrolytic activities	48%
OC[C@H]1O[C@H](OC[C@H]2O[C@H](OC[C@H]3OC(O)[C@H](O)[C@@H](O)[C@@H]3O)[C@H](O)[C@@H](O)[C@@H]2O)[C@H](O)[C@@H](O)[C@@H]1O (stereo partly drawn) [isomaltotriose]	–	–	–	161%
OC[C@H]1O[C@@H]2O[C@H]3[C@H](O)[C@@H](O)[C@@H](O[C@H]4[C@H](O)[C@@H](O)[C@@H](O[C@H]5[C@H](O)[C@@H](O)[C@@H](O[C@H]6[C@H](O)[C@@H](O)[C@@H](O[C@H]7[C@H](O)[C@@H](O)[C@@H](O[C@H]1[C@H](O)[C@H]2O)O[C@@H]7CO)O[C@@H]6CO)O[C@@H]5CO)O[C@@H]4CO)O[C@@H]3CO [α-cyclodextrine]	–	–	well hydrolytic activities	58%
OC[C@H]1O[C@H](O[C@H]2[C@H](O)[C@@H](O)[C@@H](O[C@H]3[C@H](O)[C@@H](O)[C@@H](O[C@H]4[C@H](O)[C@@H](O)[C@@H](O[C@H]5[C@H](O)[C@@H](O)[C@@H](O[C@H]6[C@H](O)[C@@H](O)[C@@H](O[C@H]7[C@H](O)[C@@H](O)C(O)O[C@@H]7CO)O[C@@H]6CO)O[C@@H]5CO)O[C@@H]4CO)O[C@@H]3CO)O[C@@H]2CO)[C@H](O)[C@@H](O)[C@@H]1O (stereo partly drawn) [maltoheptaose]	–	–	–	57%
OC[C@H]1O[C@H](OC[C@H]2OC(O)[C@H](O)[C@@H](O)[C@@H]2O)[C@H](O)[C@@H](O)[C@@H]1O (stereo partly drawn) [isomaltose]	–	–	well hydrolytic activities	163%
